One compound from patent US7485651B2, “Compounds with activity on muscarinic receptors” (Acadia Pharmaceuticals, Inc., priority 1998, dated 2009) can be followed below.

Assay [1] has as its target serotonin 5-HT2A (Homo sapiens, UniProt P28223). In words: Test against other receptors: serotonin 5-HT2A.
The target in assay [2] is T1, α-adrenergic receptor subtype 2B (Homo sapiens, UniProt P18089).
T1 sequence (P18089 1-450): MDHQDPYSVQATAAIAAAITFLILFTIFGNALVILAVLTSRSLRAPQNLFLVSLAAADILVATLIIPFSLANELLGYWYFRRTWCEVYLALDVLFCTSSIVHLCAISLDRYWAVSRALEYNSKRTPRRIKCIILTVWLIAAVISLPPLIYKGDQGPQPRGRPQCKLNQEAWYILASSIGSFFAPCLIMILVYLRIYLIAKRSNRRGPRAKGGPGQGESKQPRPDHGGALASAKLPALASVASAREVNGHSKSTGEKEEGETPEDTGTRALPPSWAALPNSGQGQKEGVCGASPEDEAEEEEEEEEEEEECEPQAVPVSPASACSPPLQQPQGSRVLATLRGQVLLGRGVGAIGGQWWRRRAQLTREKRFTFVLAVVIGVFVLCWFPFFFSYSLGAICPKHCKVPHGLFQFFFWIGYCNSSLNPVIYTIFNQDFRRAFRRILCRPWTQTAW
In words: Test against other receptors: α-adrenergic 2B. It counts as cell-based.

The target of assay [3] is T2, m5 receptor (Homo sapiens, UniProt P08912).
T2 construct: expressed in transfected cells; host or cells: NIH 3T3 (ATCC CRL 1658)
T2 sequence (P08912 1-532): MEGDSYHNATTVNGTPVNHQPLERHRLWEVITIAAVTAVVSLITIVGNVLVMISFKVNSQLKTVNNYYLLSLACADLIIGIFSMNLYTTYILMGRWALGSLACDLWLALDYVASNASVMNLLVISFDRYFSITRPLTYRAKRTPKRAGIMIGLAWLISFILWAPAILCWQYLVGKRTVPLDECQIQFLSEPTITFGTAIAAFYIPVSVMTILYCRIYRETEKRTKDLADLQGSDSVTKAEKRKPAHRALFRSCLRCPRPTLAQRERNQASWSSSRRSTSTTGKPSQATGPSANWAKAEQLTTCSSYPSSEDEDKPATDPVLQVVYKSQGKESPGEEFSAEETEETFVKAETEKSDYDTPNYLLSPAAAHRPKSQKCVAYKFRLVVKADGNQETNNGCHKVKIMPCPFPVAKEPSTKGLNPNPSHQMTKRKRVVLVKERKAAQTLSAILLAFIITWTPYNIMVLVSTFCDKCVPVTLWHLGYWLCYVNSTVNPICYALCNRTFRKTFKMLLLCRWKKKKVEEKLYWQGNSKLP
The assay is described as follows: R-SAT / NIH 3T3 cells transfected with m5 muscarinic receptor. It counts as cell-based. From the text:
A particularly convenient functional assay system is the receptor selection and amplification assay disclosed in U.S. Pat. No. 5,707,798 describing a method of screening for bioactive compounds by utilizing the ability of cells transfected with receptor DNA, e.g. coding for the different muscarinic subtypes, to amplify in the presence of a ligand of the receptor. Cell amplification is detected as increased levels of a marker also expressed by the cells.
Transfection of cells with muscarinic receptor DNAs (general procedure) NIH 3T3 cells (available from the American Type Culture Collection as ATCC CRL 1658) were grown at 37° C. in a humidified atmosphere (5% CO2) incubator in Dulbecco's modified Eagle's medium (DMEM) supplemented with 4.5 g/l glucose, 4 mM glutamine, 50 units/m1 penicillin, 50 units/m1 streptomycin (available from Advanced Biotechnologies, Inc., Gaithersburg, Md.) and 10% calf serum (available from Sigma, St. Louis, […].). The cells were treated with trypsin-EDTA, spun down and plated at 2×10^6 per 15 cm dish in 20 m1 of DMEM containing 10% calf serum.
The m1-m5 muscarinic receptor subtypes were cloned substantially as described by Bonner et al., Science 237, 1987, p. 527, and Bonner et al., Neuron 1, 1988, p. 403. For the m2 and m4 receptors, the cells were co-transfected with DNA encoding a chimera between the Gq protein and the five carboxy-terminal amino acids of the Gi protein (the Gq-i5 construct is described by Conklin et al., Nature 363, 1993, p.274).
On day one, the cells were transfected using the Superfect transfection reagent (available from Qiagen, Valencia, Calif.) in accordance with the manufacturer's instructions. Receptor DNA, β-gal DNA (pSI-β-galactosidase available from Promega, Madison, Wis.), chimeric Gq-i5 DNA for the m2 and m4 receptor subtype assays, and salmon sperm DNA (available from Sigma, St. Louis, […].) as filler to a total of 20 μg DNA was added per plate. Prior to addition to the plates, 60 μl Superfect was added to the DNA and mixed thoroughly by pipetting up and down several times. The mixture was incubated at room temperature for 10-15 minutes. The media were aspirated, and 12 ml fresh DMEM containing 10% calf serum and 50 units/m1 penicillin/streptomycin was added to the plates. The DNA-Superfect solution was mixed once more with a pipette and added to the plate which was swirled to distribute the DNA mixture evenly over the surface. The cells were incubated overnight at 37° C. and 5% CO2. After incubation, the media were aspirated and the plates were rinsed once with a 15 m1 volume of Hank's Buffered Saline. The plates were swirled to ensure thorough rinsing. 20 m1 fresh DMEM supplemented with 10% calf serum and 50 units/m1 penicillin/streptomycin was added to the plates. The cells were incubated for 24-48 hours until the plates were 100% confluent.
Assay of NIH 3T3 cells transfected with muscarinic receptor subtypes (general procedure) DMEM containing 2% Cyto-SF3 was heated at 37° C. in a water bath under sterile conditions. Sterile working stock solutions of test compounds to be assayed were prepared by diluting the compounds in DMEM to 8× the final concentration for testing. The compound (carbachol) to be included in the assay as a positive control was also diluted in DMEM to 8× the final concentration. 50 μL of the DMEM containing 2% Cyto-SF3 was added to each well of 96-well microtiter plates under sterile conditions. Then, 16 of compound solutions were added to the top wells of the plates, and dilution of the solutions was performed by taking 16 μl of the compound solutions from the top wells and pipetting them into the next row of wells. This procedure was repeated with each subsequent row of wells, except that 50 μl medium alone was added to the baseline control wells (the wells that contain medium and cells, but not test compounds) and plate control wells (wells containing medium, but not test compounds and cells). […]

serotonin 5-HT2A, sequence (P28223 whole entry): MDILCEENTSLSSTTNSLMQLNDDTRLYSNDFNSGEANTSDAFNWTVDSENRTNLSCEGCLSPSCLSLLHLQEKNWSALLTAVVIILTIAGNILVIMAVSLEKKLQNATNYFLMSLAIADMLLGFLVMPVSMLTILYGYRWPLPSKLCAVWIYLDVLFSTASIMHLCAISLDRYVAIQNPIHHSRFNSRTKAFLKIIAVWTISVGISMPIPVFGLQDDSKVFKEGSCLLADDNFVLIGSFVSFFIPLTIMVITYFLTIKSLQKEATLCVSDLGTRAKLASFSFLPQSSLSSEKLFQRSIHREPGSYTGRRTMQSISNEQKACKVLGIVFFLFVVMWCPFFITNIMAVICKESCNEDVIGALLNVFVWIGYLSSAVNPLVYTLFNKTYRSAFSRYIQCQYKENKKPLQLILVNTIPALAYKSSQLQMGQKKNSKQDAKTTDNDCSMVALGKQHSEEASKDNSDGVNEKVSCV

Consider `CCCCC1CCN(CCCC(=O)c2ccccc2C)CC1` [Compound A, 4-n-Butyl-1-[4-(2-methylphenyl)-4-oxo-1-butyl]piperidine], for which the agonist activity entry in assay [1] and in assay [2] was “no significant activity” each time. In addition, the “inhibition of receptor responses (antagonist experiments)” value in assay [1] and in assay [2] was “did not inhibit” each time. In addition, the “agonist activity at the m5 receptor” value in assay [3] is on record as “only activated the m1 receptor subtype”. For the same compound, the Emax at 1.5 µM in assay [3] (NIH3T3, m5, compound at 1.5 μM, maximum = response to 10 μM carbachol, read-out: Cellular response as a percentage of the maximum response of the cells) was 3%. For the same compound, in assay [3] (m5), the “antagonism of carbachol-induced responses” value is listed as “not an antagonist”.
